Results on one molecule are retold here after patent US20140038920A1, “TFEB PHOSPHORYLATION INHIBITORS AND USES THEREOF” (FONDAZIONE TELETHON, priority 2011, published 2014).

The subject of data set [1] is glycosaminoglycan (GAG) accumulation in MSD NSCs. Nature of the data set: Alcian blue staining of GAGs in differentiated NSCs from MSD mice (FIG. 22). The class given is cell-based, mouse. The following applies: glia-differentiated MSD NSCs, 10 nM, 24 hours, versus DMSO. On the procedure:
After 24 hours, the GAG content was determined by alcian blue (AB) staining. Both torins were able to reduce GAG staining in MSD treated cells as compared to DMSO treated cells.
Neuronal progenitor cells were isolated from cortices of WT and MSD pups (P0) by tissue homogenization using the neural tissue dissociation kit and separation using magnetic sorting of cells expressing the stem cell marker prominin-1 (Miltenyi Biotec Srl). Neuronal progenitor cells were maintained in ESGRO complete medium (Hyclone) in the presence of EGF and FGF2 growth factors (Prepotech). Where indicated, neural stem cells (NSCs) were differentiated by removing growth factors and incubate in ESGRO medium containing 2% of serum for at least 48 h.
Neuronal progenitor cells were isolated from cortices of WT and MSD pups (P0) by using standard protocols. Neuronal stem cells (NSCs) were fixed in Methacarn (60% Methanol; 10% Acetic Acid; 30% Chloroform) for 15 min at RT. After washing the cells were stained for 3 hours in 1% alcian blue pH 2.5, rinsed in 0.3% acetic acid and water and mounted in 100% for visualization.

In the next data set the test system is TFEB. Nature of the data set: High content TFEB-GFP nuclear translocation assay. The following applies: Homo sapiens, TFEB-GFP HeLa cells. The format is cell-based. The procedure: Immunoblotting of protein extracts isolated from HeLa cells treated overnight, as indicated. Membranes were probed with antibodies for p-T202/Y204-ERK1/2, ERK1/2, p-T389-S6K, and S6K to measure ERK and mTORC1 activities. […] FLAG immunoblotting of cytosolic and nuclear fractions isolated from TFEB-3×FLAG HeLa cells cultured in amino acid-free media and subsequently stimulated as indicated for at least 3 h. Correct subcellular fractionation was verified with H3 and tubulin antibodies. […] After 3 h at 37° C. in RPMI medium containing one of each of the compounds, the cells were washed, fixed, and stained with DAPI and photographed by using confocal automated microscopy (Opera high content system, Perkin Elmer). […] Scale bars represent 30 μm. […] The EC50 for each compound was calculated using Prism software (see Materials and Methods for details). […] Antibody used were p-T389-S6K, S6K and FLAG. […] HeLa cells stably expressing Flag-3×TFEB were infected with lentiviruses encoding a Short hairpin (Sh-) RNA targeting luciferase (control) or RagC and RagD mRNAs. […] TFEB localization was detected with a FLAG antibody, whereas tubulin and H3 were used as controls for the cytosolic and nuclear fraction, respectively; levels of S6K phosphorylation were used to test RagC and RagD knockdown efficiency.
After 3 hours at 37° C. in RPMI medium cells were washed, fixed, and stained with DAPI. For the acquisition of the images, ten pictures per each well of the 384-well plate were taken by using confocal automated microscopy (Opera high content system, Perkin Elmer). A dedicated script was developed to perform the analysis of TFEB localization on the different images (Acapella software, Perkin Elmer). The script calculates the ratio value resulting from the average intensity of nuclear TFEB-GFP fluorescence divided by the average of the cytosolic intensity of TFEB-GFP fluorescence. The results were normalized using negative (RPMI medium) and positive (HBSS starvation) control samples in the same plate. The data are represented by the percentage of nuclear translocation at the different concentrations of each compound using Prism software (GraphPad software). The EC50 for each compound was calculated using non-linear regression fitting (Prism software).
In order to find additional small molecules able to induce the translocation of TFEB from the cytosol to the nucleus, the applicants developed a cell-based high content assay using stable HeLa cells overexpressing TFEB fused to the green fluorescent protein (TFEB-GFP). In the assay imaging of treated cells is acquired by an automated confocal microscope (OPERA system) and the analysis of those images with Acapella image software calculates the ratio of the average of fluorescence intensity of TFEB-GFP between the cytosol and nucleus of the cell (see Materials and methods for details). […] They tested ten concentrations for each inhibitor.

Data set [2] deals with vacuolization in MSD cells. The data set is described as follows: Electron microscopy of vacuolization in differentiated MSD NSCs (FIG. 23). The format is cell-based, mouse. The procedure:
Differentiated NSC were fixed on glutaraldehyde and processed for standard electron microscopy.
Cells were washed with PBS, fixed in 0.05% glutaraldehyde, and dissolved in 0.2 M Hepes buffer (pH 7.4) for 30 min at room temperature. The cells were then post-fixed for 2 h in OsO4. After dehydration in graded series of ethanol, the cells were embedded in Epon 812 (Fluka) and polymerized at 60° C. for 72 h. Thin sections were cut at the Leica EM UC6, counterstained with uranyl acetate and lead citrate.

Data set [3] relates to Multiple Sulfatase Deficiency (MSD) mice. Nature of the data set: Liver GAG accumulation by alcian blue staining in treated MSD mice (FIG. 24). The following applies: oral gavage 0.3 mg/day/mouse in 50% PEG400, 10 days, n=3. The class given is in vivo. The procedure: FIG. 24 Torin 2 reduces GAG accumulation in the liver of MSD mice. MSD mice were treated with placebo (MSD—750) or torin2 (MSD—727) during 10 days (oral administration; 0.3 mg torin 2/day/mouse in 50% PEG400). After the treatment liver tissues were collected and GAG accumulation was determined by alcian blue staining (black spots).
(§1) Multiple Sulfatase Deficiency (MSD) mice were treated with placebo (n=3) or torin 2 (n=3) during 10 days (gavage-oral administration; 0.3 mg torin 2/day/mouse in 50% PEG400). […] After the treatment liver tissues were collected and GAG accumulation was determined by alcian blue staining.
Sections of paraffin-embedded liver tissue were stained with 1% Alcian blue (Sigma-Aldrich) and counterstained with Nuclear-Fast red (Sigma-Aldrich).

Data set [4] is classed as in vivo. The note with it: MSD mice, oral gavage 0.3 mg/day/mouse, 10 days. The procedure:
as §1

Structures are written as SMILES. Like-named read-outs stand apart in the source and are kept apart here.

Consider `Nc1ccc(-c2ccc3ncc4ccc(=O)n(-c5cccc(C(F)(F)F)c5)c4c3c2)cn1` [TORIN 2], for which, in data set [1], the “alcian blue-stained GAGs” value is recorded as “striking reduction”. Also, in the data set with TFEB (3 h, ten concentrations 2.54 nM to 50 μM (FIG. 19D), read-out: EC50, TFEB nuclear translocation), the EC50 was found to be 1670 nM. For the same molecule, the EC50 in the data set on TFEB (mobilization of cytosolic TFEB to the nucleus, 3 h at 37° C. in RPMI, ten concentrations 50 μM to 2.54 nM, 4 runs, read-out: Average EC50) is below 7000 nM. Moreover, the cellular vacuolization entry in data set [2] is recorded as “reduces vacuolization”. Besides, the “GAG staining in liver” value in data set [3] is given as “significant reduction”. Further, in data set [4], the “body weight after treatment” value is recorded as “no weight differences” and the survival entry is reported as “all the mice treated survived”.
